Measurements taken from patent US20140163082A1, “PYRAZOLYL COMPOUNDS FOR USE IN REVERSING REACTIVE GLIOSIS” (priority 2011, published 2014).

How the values were obtained:
[1] = test system: hRMVECs cocultured with rMC-1 cells; assay: Cell migration in a co-culture system model (transwell); assay type: cell-based, human; settings: rMC-1 cells treated with YC-1 100 μM, normoxic and hypoxic conditions
Procedure: Migration assay of hRMVECs was carried out using the transwell insert with […] pore size. The inserts were coated with Extracellular matrix [ECM] [Millipore, Billerica, Mass.] and airdry up. Chemotaxis was induced by the control r-MClcells or the r-MC1 cells that were treated with YC-1 [100 μM], which were situated in the lower compartment. hRMVECs suspension [final concentration, 5×10^4 cells/well] was added to the upper compartment [FIG. 7B]. After incubated for 24 hours, the filters were washed and then fixed and stained with crystal violet [0.5% crystal violet and 20% methanol] for 30 min at room temperature. The filters were washed with distilled water, and the cells on the upper surface of the inserts were wiped with a cotton swab. The number of cells per field that migrated to the lower surface of the filters was determined microscopically. Five randomly chosen fields were counted per filter. Data were presented as a number of migrated cells [**P<0.01].

[2] = test system: rMC-1 cells; assay: GFAP immunofluorescence, rMC-1; assay type: cell-based; settings: for GFAP protein expression (immunofluorescence): vs hypoxic controls
Procedure: Cells were placed in airtight chambers [BioSpherix, Redfield, N.Y.] and the O2 tension was maintained at 1.2% by using Pro-Ox Model 110 O2 regulator [BioSpherix, Redfield, N.Y.]. The chamber was purged with a gas mixture of 5.32% CO2, and 93.48% N2. […] Müller cells [rMC-1] and […] cells [2×10^4 cells per well] were grown on 8-well chamber slides and cultured in 300 μl of their growing media, which contained YC-1 [25-100 μM] or DMSO [0.2% v/v] and incubated under normoxia or hypoxia for 48 hours at 37° C. YC-1 or DMSO was added 5 minutes prior to the hypoxic incubation. The cells were fixed 48 hours later with 3.7% paraformaldehyde and permeabilized with 0.2% TritonTM X-100 in PBS. The cells were incubated for two hours with anti-GFAP antibody. Negative control experiments consisted of omission of the primary antibody. Cells were then incubated with HRP-conjugate working solution, followed by the addition of the […] solution [TSA Kit#2 and #4 for rMC-1 and […] staining, respectively] at 1:100 dilutions [Molecular Probes, Carlsbad, Calif.]. Digitized images were acquired utilizing AxioVision software [Zeiss Axiovert 135 and AxioCam]. Intensity values of immunofluorescence staining of GFAP in rMC-1 and […] cells was analyzed and quantified using MetamorphTM imaging analysis software version 6.0 [Universal Imaging, Sunnyvale, Calif.]. The staining intensity in our series ranged from a weak blush to moderate or strong. The amount of cells staining with the antibody was further categorized as focal [<10%], patchy [10%-50%], and diffuse [>50%]. For semiquantitative analysis, focal and/or weak staining was considered equivocal staining, and patchy or diffuse staining was subcategorized as either moderate or strong.

[3] = test system: R28 cells
[4] = test system: ischemic retinas; assay: Immunohistochemical analysis, in vivo (OIR retinas); set-up: species or system C57BL/6J mice; settings: OIR mice, vs DMSO-treated retinas
Procedure: Retinal NV was induced in newborn mice as described previously. Briefly, P7 mice were exposed with their nursing mother, for 5 days [between P7 and P12] to hyperoxic conditions, by incubating them in an airtight chamber [PROOX 110 chamber O2 controller; Biospherix Ltd., Redfield, N.Y.] ventilated by a mixture of O2 and air to a final oxygen fraction of 75±2%. These incubation conditions induced vaso-obliteration and subsequent cessation of vascular development in the capillary beds of the central retina. At P12, the mice were allowed to recover in normal room air conditions and maintained for another 5 days [till P17], the day in which peak disease occurs. A condition of relative hypoxia resulted between P12 and P17, and extensive retinal NV developed in 100% of the mice. Age-matched animals with the hyperoxia-exposed groups were maintained identically, except they were exposed to room air […], 79% N2] for the entire duration of the experiment. All animals were examined and sacrificed on the same days.
A group of hyperoxia-exposed animals [n=15] were injected intravitreally [into both eyes] at P12 and P15 with 3 μl of YC-1 [100 μM] [drug-treated group]. Another group of hyperoxiaexposed mice [n=15] were injected intravitreally [into both eyes] at P12 and P15 with 3 μl of DMSO [0.2% [v/v]] [mock-treated group]. Non-treated mice grown under ambient conditions, non-treated hyperoxia-exposed mice, DMSO-treated hyperoxia-exposed mice and YC-1-treated hyperoxia-exposed mice, were all examined at different critical time points for qualitative assessment of the retinal vasculature by fluorescein angiography.
Mouse retinas were dissected and prepared for immunohistochemical analysis, fixed in 4% paraformaldehyde in 0.1 M PBS for 15 min at room temperature and embedded in paraffin, sectioned [5 μm]. Tissue sections were deparaffinized, hydrated, and later exposed to heat induced antigen retrieval using a microwave oven [three 5-minute cycles in citrate buffer, pH 6.0], endogenous peroxidase was abolished with methanol, and hydrogen peroxide and nonspecific background staining was blocked by incubating the tissue sections for 5 minutes in normal swine serum. Subsequently, all slides were washed three times in PBS, and incubated for 1 hour with primary anti-[HIF-1α, VEGF, PDGF-B, GFAP, iNOS, and β-actin] antibodies. The sections were washed with TBST and incubated with EnVision Polymer HRP secondary antibody [DAKO, Carpinteria, Calif.] for 30 minutes. All slides were stained with DAB solution and counterstained with hematoxylin. Slides were cover slipped [Permount; Fisher Scientific, Fairlawn, N.J.] and examined by light microscopy. Negative controls were performed by omitting the primary antibodies. Sections were photographed under a microscope [Zeiss Axiovert 135, Thornwood, N.Y.], and images were acquired a digital camera [AxioCam, N.Y.]. All retinas were examined at X60 objective. The staining intensity in our series ranged from a weak blush to moderate or strong. The amount of cells staining with the antibody was further categorized as focal [<10%], patchy [10%-50%], and diffuse [>50%]. For meaningful semiquantitative analysis, focal and/or weak staining was considered equivocal staining, and patchy or diffuse staining was either subcategorized as either moderate or strong staining. All Immunohistochemical analyses were measured by Metamorph digital image software [Molecular Devices, Sunnyvale, Calif.].

[5] = rMC-1, 25 μM YC-1, hypoxia 48 hours

**Q.** With `OCc1ccc(-c2nn(Cc3ccccc3)c3ccccc23)o1` [YC-1, 3-(5′-hydroxymethyl-2′-furyl)-1-benzylindazole] as the molecule, how does the “rMC-1 cells-induced hRMVECs migration” value [1] read?
**A.** significantly attenuated

**Q.** What about the “GFAP cytoplasmic staining pattern/intensity (immunofluorescence)” value [2, 5] of the same molecule?
**A.** weaker equivocal staining intensity

**Q.** What about the “GFAP staining vs DMSO-treated hypoxic controls (immunofluorescence)” value [2, 5] of the same molecule?
**A.** remarkable inhibition

**Q.** And the “GFAP protein expression (immunofluorescence)” value ([2]; rMC-1, 50 μM YC-1, hypoxia)?
**A.** significant inhibitory effects

**Q.** And the “GFAP protein expression (immunofluorescence)” value ([2]; rMC-1, 75 μM YC-1, hypoxia)?
**A.** significant inhibitory effects

**Q.** And the “GFAP staining remaining in cytoplasm (immunofluorescence)” value ([2]; rMC-1, 100 μM YC-1, hypoxia)?
**A.** few stained regions

**Q.** What about the “GFAP protein levels (quantified staining intensity, FIG. 11C)” value ([2]; rMC-1, hypoxia, dose-dependent fashion) of the same molecule?
**A.** significantly reduced

**Q.** What about the “cell viability (DAPI exclusion)” value [3] of the same molecule?
**A.** comprised the majority of cells

**Q.** And the “GFAP immunoexpression in retina” value [4]?
**A.** significant down-regulation

**Q.** And the “HIF-1 immunoexpression in retina” value [4]?
**A.** significant inhibition

**Q.** What about the “PDGF-B immunoreactivity in retina” value [4] of the same molecule?
**A.** significantly inhibited

**Q.** And the “VEGF immunoexpression in retina” value [4]?
**A.** significant inhibition

**Q.** What about the “iNOS immunoreactivities in retina” value [4] of the same molecule?
**A.** significantly down-regulated
